Test results taken from patent US10167257B2, “Indole derivatives for use in medicine” (IOmet Pharma Ltd., priority 2014, dated 2019).

Columns and labels:
IDO (SKOV-3 cells) = molecular target: T1, IDO (SKOV-3 cells) (Homo sapiens, UniProt P14902); experiment: IDO cell-based assay (SKOV-3, IFNγ-induced), kynurenine production; conditions: SKOV-3 ovary adenocarcinoma cells, IFNγ 500 ng/ml, 500 μM L-Trp, 48 h, kynurenine by absorbance at 490 nm
T1 construct: This assay utilised cancer cells which expressed either TDO or IDO; host or cells: SKOV-3 ovary adenocarcinoma cells, IFNγ-induced
Description: (§1) Two different types of assay were employed: 1. A TDO and IDO biochemical coupled assay which utilised recombinantly produced and purified TDO and IDO enzymes in combination with the enzyme formamidase. This coupled enzyme system allowed conversion of N-formylkynurenine produced by TDO or IDO activity to kynurenine which was then quantified by fluorescence following addition of Erhlich's Reagent. 2. A cell-based assay for detecting the effect of test compounds on kynurenine production in two different cancer cell types. This assay utilised cancer cells which expressed either TDO or IDO and as such was used as a means of testing compound activity at these two enzymes in a cell-based context. The protocols for these are set out below.
(§2) A172 human glioblastoma (ATCC) were grown in DMEM+2 mM L-glutamine medium supplemented with 10% foetal bovine serum and SKOV-3 ovary adenocarcinoma (ATCC) cells were grown in McCoys 5A+L-glutamax medium supplemented with 15% foetal bovine serum. On the day of assay, cells were detached using trypsin-EDTA (0.25% v/v), re-suspended in assay media (RPMI 1640 phenol red free+L-glutamine supplemented with 10% dialysed foetal bovine serum). A172 cells were seeded at 30K cells per well and SKOV-3 cells at 40K cells per well into 96-well plates containing test samples/vehicle control together with 500 μM L-Trp. Cells were then incubated for 48 h at 37° C., 5% CO2. In SK-OV-3 cells, IFNγ was also added at 500 ng/ml for the 48 h incubation in order to induce expression of IDO. Plates were centrifuged and the supernatant was removed and incubated for 5 min in the presence of 1% Erhlich's reagent. Kynurenine levels were then quantified by measuring absorbance at 490 nm.

TDO (A172 cells) = molecular target: T2, TDO (A172 cells) (Homo sapiens, UniProt P48775); experiment: TDO cell-based assay (A172), kynurenine production; conditions: A172 human glioblastoma cells, 500 μM L-Trp, 48 h, kynurenine by absorbance at 490 nm
T2 construct: This assay utilised cancer cells which expressed either TDO or IDO; host or cells: A172 human glioblastoma cells
Description: as §1, §2

T2 sequence (P48775 whole entry): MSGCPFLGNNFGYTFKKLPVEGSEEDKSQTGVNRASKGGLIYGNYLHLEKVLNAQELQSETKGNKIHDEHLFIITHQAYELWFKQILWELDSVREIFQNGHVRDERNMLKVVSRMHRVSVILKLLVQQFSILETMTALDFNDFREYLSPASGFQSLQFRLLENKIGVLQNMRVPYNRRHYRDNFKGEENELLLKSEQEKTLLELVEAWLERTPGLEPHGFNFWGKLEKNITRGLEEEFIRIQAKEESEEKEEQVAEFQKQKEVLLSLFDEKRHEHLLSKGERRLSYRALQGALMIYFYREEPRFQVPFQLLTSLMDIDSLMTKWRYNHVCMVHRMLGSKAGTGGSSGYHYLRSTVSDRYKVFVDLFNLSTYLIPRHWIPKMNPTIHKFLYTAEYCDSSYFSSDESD
T1 sequence (P14902 whole entry): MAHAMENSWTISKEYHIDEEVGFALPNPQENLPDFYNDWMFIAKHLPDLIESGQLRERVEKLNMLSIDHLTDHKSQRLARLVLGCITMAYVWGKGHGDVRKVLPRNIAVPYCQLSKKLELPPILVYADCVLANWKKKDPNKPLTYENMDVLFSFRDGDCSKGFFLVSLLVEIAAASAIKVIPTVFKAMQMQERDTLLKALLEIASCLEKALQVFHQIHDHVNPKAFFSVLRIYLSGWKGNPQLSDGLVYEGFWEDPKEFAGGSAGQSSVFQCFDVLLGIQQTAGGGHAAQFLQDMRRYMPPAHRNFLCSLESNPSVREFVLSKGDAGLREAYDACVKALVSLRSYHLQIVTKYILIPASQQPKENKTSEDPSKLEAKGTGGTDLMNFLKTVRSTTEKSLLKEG

| SMILES | IDO cellular assay (SKOV3) pIC50 (IDO (SKOV-3 cells)) | TDO cellular assay (A172) pIC50 (TDO (A172 cells)) |
| --- | --- | --- |
| CC(NC(=O)c1cc2cc(C(N)=O)ccc2[nH]1)c1ccccc1 (centres unmarked) [Compound 88] | − (− = pIC50 <4.50) | +++ (+++ = pIC50 ≥5.50) |
| CC(NC(=O)c1cc2ccc(C(N)=O)cc2[nH]1)c1ccccc1 (centres unmarked) [Compound 89] | − (− = pIC50 <4.50) | +++ (+++ = pIC50 ≥5.50) |
| CC(NC(=O)c1cc2cc(Cl)ccc2[nH]1)c1ccc(C(=O)N2CCOCC2)cc1 (centres unmarked) [Compound 90] | +++ (+++ = pIC50 ≥5.50) | − (− = pIC50 <4.50) |
| CC(NC(=O)c1cc2cc(Cl)ccc2[nH]1)c1ccc(C(=O)N2CCN(C)CC2)cc1 (centres unmarked) [Compound 91] | + (+ = pIC50 4.50-<5.00) | − (− = pIC50 <4.50) |
| CC(=O)N1CCC(C(C)NC(=O)c2cc3cc(Cl)ccc3[nH]2)CC1 (centres unmarked) [Compound 105] | +++ (+++ = pIC50 ≥5.50) | − (− = pIC50 <4.50) |
| CNC(=O)c1ccc2[nH]c(C(=O)NC(C)c3ccccc3)cc2c1 (centres unmarked) [Compound 106] | + (+ = pIC50 4.50-<5.00) | − (− = pIC50 <4.50) |
| O=C(NCC1CCCN(C(=O)C2CC2)C1)c1cc2cc(Cl)ccc2[nH]1 (centres unmarked) [Compound 108] | ++ (++ = pIC50 5.00-<5.50) | − (− = pIC50 <4.50) |
| COc1cccc(-c2cc(CNC(=O)c3cc4cc(Cl)ccc4[nH]3)on2)c1 [Compound 109] | ++ (++ = pIC50 5.00-<5.50) | − (− = pIC50 <4.50) |
| CC(NC(=O)c1cc2cc(Cl)ccc2[nH]1)C1CCN(S(C)(=O)=O)CC1 (centres unmarked) [Compound 111] | ++ (++ = pIC50 5.00-<5.50) | − (− = pIC50 <4.50) |
| COc1cccc(-n2cc(CNC(=O)c3cc4cc(Cl)ccc4[nH]3)cn2)c1 [Compound 112] | +++ (+++ = pIC50 ≥5.50) | − (− = pIC50 <4.50) |
| COc1ccc(-c2noc(CNC(=O)c3cc4cc(Cl)ccc4[nH]3)n2)cc1OC [Compound 113] | +++ (+++ = pIC50 ≥5.50) | − (− = pIC50 <4.50) |
| O=C(NC1Cc2ccccc2C1)c1cc2cc(Cl)ccc2[nH]1 [Compound 116] | − (− = pIC50 <4.50) | ++ (++ = pIC50 5.00-<5.50) |
| CCN(Cc1noc(CC(C)C)n1)C(=O)c1cc2cc(Cl)ccc2[nH]1 [Compound 117] | ++ (++ = pIC50 5.00-<5.50) | + (+ = pIC50 4.50-<5.00) |
| Cc1ccccc1C1CCN(CCNC(=O)c2cc3cc(Cl)ccc3[nH]2)C1 (centres unmarked) [Compound 118] | ++ (++ = pIC50 5.00-<5.50) | + (+ = pIC50 4.50-<5.00) |
| O=C(NC1CCCCC1O)c1cc2cc(Cl)ccc2[nH]1 (centres unmarked) [Compound 119] | + (+ = pIC50 4.50-<5.00) | − (− = pIC50 <4.50) |
| Cc1nccc2c(NC(=O)c3cc4cc(F)ccc4[nH]3)cccc12 [Compound 120] | +++ (+++ = pIC50 ≥5.50) | − (− = pIC50 <4.50) |
| C[C@H](NS(=O)(=O)c1cc2cc(F)ccc2[nH]1)c1ccccc1 [Compound 123] | ++ (++ = pIC50 5.00-<5.50) | + (+ = pIC50 4.50-<5.00) |

Now from value to molecule:

| IDO cellular assay (SKOV3) pIC50 (IDO (SKOV-3 cells)) | TDO cellular assay (A172) pIC50 (TDO (A172 cells)) | SMILES |
| --- | --- | --- |
| +++ (+++ = pIC50 ≥5.50) | + (+ = pIC50 4.50-<5.00) | CC(NC(=O)c1cc2cc(Cl)ccc2[nH]1)c1ccc(N(C)C)cc1 (centres unmarked) [Compound 87] |
| +++ (+++ = pIC50 ≥5.50) | + (+ = pIC50 4.50-<5.00) | O=C(NC(CO)c1ccccc1)c1cc2cc(Cl)ccc2[nH]1 (centres unmarked) [Compound 92] |
| +++ (+++ = pIC50 ≥5.50) | + (+ = pIC50 4.50-<5.00) | COCCN(C)C(=O)c1ccc(C(C)NC(=O)c2cc3cc(Cl)ccc3[nH]2)cc1 (centres unmarked) [Compound 93] |
| ++ (++ = pIC50 5.00-<5.50) | + (+ = pIC50 4.50-<5.00) | CC(NC(=O)c1cc2cc(Cl)ccc2[nH]1)C1CC1 (centres unmarked) [Compound 94] |
| + (+ = pIC50 4.50-<5.00) | − (− = pIC50 <4.50) | CC(NC(=O)c1cc2cc(Cl)ccc2[nH]1)c1ccc(N2CCN(C)CC2)cc1 (centres unmarked) [Compound 95] |
| + (+ = pIC50 4.50-<5.00) | − (− = pIC50 <4.50) | CC(NC(=O)c1cc2cc(Cl)ccc2[nH]1)c1ncc[nH]1 (centres unmarked) [Compound 96] |
| ++ (++ = pIC50 5.00-<5.50) | + (+ = pIC50 4.50-<5.00) | CC(NC(=O)c1cc2cc(Cl)ccc2[nH]1)c1cnoc1 (centres unmarked) [Compound 97] |
| +++ (+++ = pIC50 ≥5.50) | − (− = pIC50 <4.50) | CC(NC(=O)c1cc2cc(Cl)ccc2[nH]1)C1CCCC1 (centres unmarked) [Compound 98] |
| +++ (+++ = pIC50 ≥5.50) | + (+ = pIC50 4.50-<5.00) | O=C(NC(c1ccccc1)C1CC1)c1cc2cc(Cl)ccc2[nH]1 (centres unmarked) [Compound 99] |
| +++ (+++ = pIC50 ≥5.50) | ++ (++ = pIC50 5.00-<5.50) | COCCOc1ccc(C(C)NC(=O)c2cc3cc(Cl)ccc3[nH]2)cc1 (centres unmarked) [Compound 100] |
| +++ (+++ = pIC50 ≥5.50) | + (+ = pIC50 4.50-<5.00) | CC(C)C(NC(=O)c1cc2cc(Cl)ccc2[nH]1)c1ccccc1 (centres unmarked) [Compound 101] |
| + (+ = pIC50 4.50-<5.00) | − (− = pIC50 <4.50) | CC(NC(=O)c1cc2cc(Cl)ccc2[nH]1)c1ccc(OCCN(C)C)cc1 (centres unmarked) [Compound 102] |
| +++ (+++ = pIC50 ≥5.50) | − (− = pIC50 <4.50) | CC(NC(=O)c1cc2cc(Cl)ccc2[nH]1)C1CCOCC1 (centres unmarked) [Compound 103] |
| ++ (++ = pIC50 5.00-<5.50) | + (+ = pIC50 4.50-<5.00) | CC(NC(=O)c1cc2cc(Cl)ccc2[nH]1)c1ncco1 (centres unmarked) [Compound 104] |
| ++ (++ = pIC50 5.00-<5.50) | − (− = pIC50 <4.50) | Cc1ccnc(C(NC(=O)c2cc3cc(Cl)ccc3[nH]2)C2CC2)c1 (centres unmarked) [Compound 107] |
| ++ (++ = pIC50 5.00-<5.50) | − (− = pIC50 <4.50) | O=C(NCCc1nccs1)c1cc2cc(Cl)ccc2[nH]1 [Compound 110] |
| +++ (+++ = pIC50 ≥5.50) | − (− = pIC50 <4.50) | CCC(NC(=O)c1cc2cc(Cl)ccc2[nH]1)c1ccccc1 (centres unmarked) [Compound 114] |
| +++ (+++ = pIC50 ≥5.50) | + (+ = pIC50 4.50-<5.00) | CC(NC(=O)c1cc2cc(Cl)ccc2[nH]1)c1cnn(-c2ccccc2F)c1 (centres unmarked) [Compound 115] |
| +++ (+++ = pIC50 ≥5.50) | − (− = pIC50 <4.50) | CC(NC(=O)c1cc2cc(Cl)ccc2[nH]1)c1nc(-c2ccccc2)no1 (centres unmarked) [Compound 121] |
| ++ (++ = pIC50 5.00-<5.50) | − (− = pIC50 <4.50) | CC(CCNS(C)(=O)=O)NC(=O)c1cc2cc(Cl)ccc2[nH]1 (centres unmarked) [Compound 122] |
